Source: BigSolDB 2.1

Work on CC(=O)N1CCN(c2ccc(O)cc2)CC1 yielded a solubility (mole fraction) (in 2-butoxyethanol, 283.15 K) of 0.00309, a solubility (mole fraction) (in 2-butoxyethanol, 288.15 K) of 0.00373 and a solubility (mole fraction) (in 2-butoxyethanol, 293.15 K) of 0.00457. The solubility (mole fraction) (in 2-butoxyethanol, 298.15 K) was 0.00537, the solubility (mole fraction) (in 2-butoxyethanol, 303.15 K) was 0.00617 and the solubility (mole fraction) (in 2-butoxyethanol, 308.15 K) was 0.00726. The solubility (mole fraction) (in 2-butoxyethanol, 313.15 K) was 0.00852, the solubility (mole fraction) (in 2-butoxyethanol, 318.15 K) was 0.0102 and the solubility (mole fraction) (in 2-butoxyethanol, 323.15 K) was 0.0118. The solubility (mole fraction) (in 2-ethoxyethanol, 283.15 K) was 0.00486, the solubility (mole fraction) (in 2-ethoxyethanol, 288.15 K) was 0.0059 and the solubility (mole fraction) (in 2-ethoxyethanol, 293.15 K) was 0.00705. For the same compound, the solubility (mole fraction) (in 2-ethoxyethanol, 298.15 K) was 0.00829, the solubility (mole fraction) (in 2-ethoxyethanol, 303.15 K) was 0.00963 and the solubility (mole fraction) (in 2-ethoxyethanol, 308.15 K) was 0.0112. The solubility (mole fraction) (in 2-ethoxyethanol, 313.15 K) was 0.0134, the solubility (mole fraction) (in 2-ethoxyethanol, 318.15 K) was 0.0156 and the solubility (mole fraction) (in 2-ethoxyethanol, 323.15 K) was 0.0179. For the same compound, the solubility (mole fraction) (in 2-methoxyethanol, 283.15 K) was 0.00715, the solubility (mole fraction) (in 2-methoxyethanol, 288.15 K) was 0.00822 and the solubility (mole fraction) (in 2-methoxyethanol, 293.15 K) was 0.00968. The solubility (mole fraction) (in 2-methoxyethanol, 298.15 K) was 0.0114, the solubility (mole fraction) (in 2-methoxyethanol, 303.15 K) was 0.0133 and the solubility (mole fraction) (in 2-methoxyethanol, 308.15 K) was 0.0153. The solubility (mole fraction) (in 2-methoxyethanol, 313.15 K) was 0.0181, the solubility (mole fraction) (in 2-methoxyethanol, 318.15 K) was 0.0212 and the solubility (mole fraction) (in 2-methoxyethanol, 323.15 K) was 0.0242. The solubility (mole fraction) (in 2-propoxyethanol, 283.15 K) was 0.00403, the solubility (mole fraction) (in 2-propoxyethanol, 288.15 K) was 0.00474 and the solubility (mole fraction) (in 2-propoxyethanol, 293.15 K) was 0.00574. For the same compound, the solubility (mole fraction) (in 2-propoxyethanol, 298.15 K) was 0.00686, the solubility (mole fraction) (in 2-propoxyethanol, 303.15 K) was 0.00813 and the solubility (mole fraction) (in 2-propoxyethanol, 308.15 K) was 0.00951. For the same compound, the solubility (mole fraction) (in 2-propoxyethanol, 313.15 K) was 0.011, the solubility (mole fraction) (in 2-propoxyethanol, 318.15 K) was 0.0128 and the solubility (mole fraction) (in 2-propoxyethanol, 323.15 K) was 0.015. For the same compound, the solubility (mole fraction) (in acetonitrile, 283.15 K) was 0.001, the solubility (mole fraction) (in acetonitrile, 288.15 K) was 0.00124 and the solubility (mole fraction) (in acetonitrile, 293.15 K) was 0.0015. For the same compound, the solubility (mole fraction) (in acetonitrile, 298.15 K) was 0.00181, the solubility (mole fraction) (in acetonitrile, 303.15 K) was 0.00217 and the solubility (mole fraction) (in acetonitrile, 308.15 K) was 0.00259. It also gave a solubility (mole fraction) (in acetonitrile, 313.15 K) of 0.00304, a solubility (mole fraction) (in acetonitrile, 318.15 K) of 0.00359 and a solubility (mole fraction) (in acetonitrile, 323.15 K) of 0.00433. It also gave a solubility (mole fraction) (in ethanol, 283.15 K) of 0.00218, a solubility (mole fraction) (in ethanol, 288.15 K) of 0.00273 and a solubility (mole fraction) (in ethanol, 293.15 K) of 0.00328. For the same compound, the solubility (mole fraction) (in ethanol, 298.15 K) was 0.00396, the solubility (mole fraction) (in ethanol, 303.15 K) was 0.00467 and the solubility (mole fraction) (in ethanol, 308.15 K) was 0.00551. It also gave a solubility (mole fraction) (in ethanol, 313.15 K) of 0.00634, a solubility (mole fraction) (in ethanol, 318.15 K) of 0.00749 and a solubility (mole fraction) (in ethanol, 323.15 K) of 0.00887. It also gave a solubility (mole fraction) (in ethylene glycol, 283.15 K) of 0.000479, a solubility (mole fraction) (in ethylene glycol, 288.15 K) of 0.000658 and a solubility (mole fraction) (in ethylene glycol, 293.15 K) of 0.000921. The solubility (mole fraction) (in ethylene glycol, 298.15 K) was 0.00123, the solubility (mole fraction) (in ethylene glycol, 303.15 K) was 0.00167 and the solubility (mole fraction) (in ethylene glycol, 308.15 K) was 0.00225. The solubility (mole fraction) (in ethylene glycol, 313.15 K) was 0.00293, the solubility (mole fraction) (in ethylene glycol, 318.15 K) was 0.00405 and the solubility (mole fraction) (in ethylene glycol, 323.15 K) was 0.00538. For the same compound, the solubility (mole fraction) (in isobutanol, 283.15 K) was 0.00108, the solubility (mole fraction) (in isobutanol, 288.15 K) was 0.00141 and the solubility (mole fraction) (in isobutanol, 293.15 K) was 0.00172. The solubility (mole fraction) (in isobutanol, 298.15 K) was 0.00214, the solubility (mole fraction) (in isobutanol, 303.15 K) was 0.00251 and the solubility (mole fraction) (in isobutanol, 308.15 K) was 0.00292. It also gave a solubility (mole fraction) (in isobutanol, 313.15 K) of 0.00353, a solubility (mole fraction) (in isobutanol, 318.15 K) of 0.00415 and a solubility (mole fraction) (in isobutanol, 323.15 K) of 0.00508. It also gave a solubility (mole fraction) (in isopropanol, 283.15 K) of 0.00132, a solubility (mole fraction) (in isopropanol, 288.15 K) of 0.00165 and a solubility (mole fraction) (in isopropanol, 293.15 K) of 0.00204. It also gave a solubility (mole fraction) (in isopropanol, 298.15 K) of 0.00263, a solubility (mole fraction) (in isopropanol, 303.15 K) of 0.00327 and a solubility (mole fraction) (in isopropanol, 308.15 K) of 0.00418. It also gave a solubility (mole fraction) (in isopropanol, 313.15 K) of 0.00526, a solubility (mole fraction) (in isopropanol, 318.15 K) of 0.00636 and a solubility (mole fraction) (in isopropanol, 323.15 K) of 0.00796. The solubility (mole fraction) (in methanol, 283.15 K) was 0.00286, the solubility (mole fraction) (in methanol, 288.15 K) was 0.00346 and the solubility (mole fraction) (in methanol, 293.15 K) was 0.00411. The solubility (mole fraction) (in methanol, 298.15 K) was 0.00485, the solubility (mole fraction) (in methanol, 303.15 K) was 0.00581 and the solubility (mole fraction) (in methanol, 308.15 K) was 0.00679. The solubility (mole fraction) (in methanol, 313.15 K) was 0.00806, the solubility (mole fraction) (in methanol, 318.15 K) was 0.00952 and the solubility (mole fraction) (in methanol, 323.15 K) was 0.0111. It also gave a solubility (mole fraction) (in n-butanol, 283.15 K) of 0.00119, a solubility (mole fraction) (in n-butanol, 288.15 K) of 0.00151 and a solubility (mole fraction) (in n-butanol, 293.15 K) of 0.00186. The solubility (mole fraction) (in n-butanol, 298.15 K) was 0.00232, the solubility (mole fraction) (in n-butanol, 303.15 K) was 0.00298 and the solubility (mole fraction) (in n-butanol, 308.15 K) was 0.00392. For the same compound, the solubility (mole fraction) (in n-butanol, 313.15 K) was 0.00488, the solubility (mole fraction) (in n-butanol, 318.15 K) was 0.00612 and the solubility (mole fraction) (in n-butanol, 323.15 K) was 0.00765. The solubility (mole fraction) (in n-propanol, 283.15 K) was 0.00179, the solubility (mole fraction) (in n-propanol, 288.15 K) was 0.00206 and the solubility (mole fraction) (in n-propanol, 293.15 K) was 0.00238. For the same compound, the solubility (mole fraction) (in n-propanol, 298.15 K) was 0.00306, the solubility (mole fraction) (in n-propanol, 303.15 K) was 0.00372 and the solubility (mole fraction) (in n-propanol, 308.15 K) was 0.00459. It also gave a solubility (mole fraction) (in n-propanol, 313.15 K) of 0.00561, a solubility (mole fraction) (in n-propanol, 318.15 K) of 0.00683 and a solubility (mole fraction) (in n-propanol, 323.15 K) of 0.00829.
